Assay results taken from the supplement of paper PMC10307832.

Columns and labels:
Assay in all cases: relative viability (nuclei count vs DMSO), 5 days (fraction); higher = more cells survive
Vandetanib + AZD7762 = compound: COc1cc2/c(=N/c3ccc(Br)cc3F)nc[nH]c2cc1OCC1CCN(C)CC1 [Vandetanib] + NC(=O)Nc1cc(-c2cccc(F)c2)sc1C(=O)N[C@H]1CCCNC1 [AZD7762] (partner 0.2 µM)
Method in brief: (§1)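 Dosing by pin tool came one day after lung cancer cell lines were seeded in 1536-well plates, using either one drug or a fixed anchor-drug dose plus five library-drug doses (not always all listed) in √10 steps. After 5 days, nuclei were counted on 4× images. Relative viability is treated-well nuclei count divided by vehicle-well nuclei count, and values are medians of duplicate plates.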

Vandetanib + Luminespib = compound: COc1cc2/c(=N/c3ccc(Br)cc3F)nc[nH]c2cc1OCC1CCN(C)CC1 [Vandetanib] + CCNC(=O)c1noc(-c2cc(C(C)C)c(O)cc2O)c1-c1ccc(CN2CCOCC2)cc1 [Luminespib] (partner 0.01 µM)
Method in brief: as §1

[1] = compound: C1=CC=C2C(=C1)N=C(S2)C(C#N)C3=NC(=NC=C3)NCCC4=CN=CC=C4 + COc1cc2c(Oc3ccc(NC(=O)C4(C(=O)Nc5ccc(F)cc5)CC4)cc3F)ccnc2cc1OCCCN1CCOCC1 [Foretinib] (partner 0.25 µM)
Method in brief: as §1

Vandetanib + Trametinib = compound: COc1cc2/c(=N/c3ccc(Br)cc3F)nc[nH]c2cc1OCC1CCN(C)CC1 [Vandetanib] + CC(=O)Nc1cccc(-n2c(=O)n(C3CC3)c(=O)c3c(Nc4ccc(I)cc4F)n(C)c(=O)c(C)c32)c1 [Trametinib] (partner 0.02 µM)
Method in brief: as §1

Cell Line | relative viability (Vandetanib + AZD7762; first compound 0.02 µM) | relative viability (Vandetanib + AZD7762; first compound 0.06325 µM) | relative viability (Vandetanib + AZD7762; first compound 0.2 µM) | relative viability (Vandetanib + AZD7762; first compound 0.6325 µM) | relative viability (Vandetanib + AZD7762; first compound 2 µM) | relative viability (Vandetanib + Luminespib; first compound 0.02 µM) | relative viability (Vandetanib + Luminespib; first compound 0.06325 µM) | relative viability (Vandetanib + Luminespib; first compound 0.2 µM) | relative viability (Vandetanib + Luminespib; first compound 0.6325 µM) | relative viability (Vandetanib + Luminespib; first compound 2 µM) | relative viability ([1]; first compound 0.005 µM) | relative viability ([1]; first compound 0.05 µM) | relative viability ([1]; first compound 0.1581 µM) | relative viability ([1]; first compound 0.5 µM) | relative viability (Vandetanib + Trametinib; first compound 0.02 µM) | relative viability (Vandetanib + Trametinib; first compound 0.06325 µM) | relative viability (Vandetanib + Trametinib; first compound 0.2 µM) | relative viability (Vandetanib + Trametinib; first compound 0.6325 µM) | relative viability (Vandetanib + Trametinib; first compound 2 µM) | relative viability ([1]; first compound 0.01581 µM)
201T | 0.675 | 0.62 | 0.626 | 0.588 | 0.614 | 1.03 | 1.05 | 1.01 | 0.99 | 0.974 | 1.19 | 1.01 | 1.08 | 0.625 | 0.715 | 0.68 | 0.751 | 0.696 | 0.676 | 
A-427 | 0.684 | 0.674 | 0.719 | 0.62 | 0.61 | 0.892 | 0.822 | 0.927 | 1.08 | 0.926 | 1.22 | 0.946 | 1.22 | 1.32 | 0.734 | 0.662 | 0.745 | 0.737 | 0.742 | 1.21
BEN | 0.69 | 0.622 | 0.585 | 0.633 | 0.661 | 0.448 | 0.333 | 0.469 | 0.297 | 0.351 | 0.658 | 0.684 | 0.847 | 0.858 | 1.09 | 1.01 | 0.985 | 1 | 0.798 | 0.557
CAL-12T | 0.676 | 0.611 | 0.631 | 0.643 | 0.574 | 0.367 | 0.461 | 0.183 | 0.307 | 0.232 | 1.06 | 0.931 | 1.27 | 0.967 | 0.342 | 0.3 | 0.316 | 0.242 | 0.305 | 1.11
ChaGo-K-1 | 0.878 | 0.886 | 0.893 | 0.816 | 0.896 | 0.633 | 0.593 | 0.616 | 0.59 | 0.507 |  | 0.838 | 1.06 | 0.932 | 0.878 | 0.87 | 0.253 | 0.929 | 0.866 | 0.954
EKVX | 0.693 | 0.692 | 0.611 | 0.694 | 0.547 | 0.878 | 0.86 | 0.956 | 0.827 | 0.65 | 0.8 | 0.83 | 0.79 | 0.777 | 0.37 | 0.289 | 0.281 | 0.294 | 0.212 | 0.833
EMC-BAC-2 | 1.08 | 1.08 | 1.12 | 1.11 | 0.973 | 1.15 | 1.11 | 0.216 | 1.27 | 1.07 | 0.946 | 0.994 | 1.03 | 1.03 | 1.01 | 0.844 | 0.872 | 0.902 | 0.822 | 1.01
EPLC-272H | 0.23 | 0.428 | 0.244 | 0.201 | 0.189 | 0.265 |  | 0.272 | 0.756 | 0.276 | 0.588 | 0.673 | 1 | 0.585 | 0.303 | 0.242 | 0.289 | 0.293 | 0.255 | 0.586
H3255 | 0.898 | 0.812 | 0.824 | 0.636 | 0.377 | 0.982 | 0.795 | 0.829 | 0.728 | 0.501 | 0.988 | 0.848 | 1.09 | 0.963 | 0.614 | 0.577 | 0.604 | 0.463 | 0.245 | 0.879
HARA | 0.262 | 0.448 | 0.396 | 0.18 | 0.312 | 0.814 | 0.561 | 0.074 | 0.9 | 0.512 | 0.869 | 0.831 | 0.975 | 0.786 | 0.515 | 0.522 | 0.574 | 0.857 | 0.523 | 0.876
HCC-15 | 1.29 | 1.04 | 1.18 | 1.33 | 1.15 | 0.343 | 0.293 | 0.0608 | 0.298 | 0.227 | 0.853 | 0.984 | 1.2 | 1.01 | 0.386 | 0.362 | 0.37 | 0.395 | 0.369 | 1.07
HCC-827 | 0.211 | 0.204 | 0.165 | 0.126 | 0.124 | 0.897 | 0.589 | 0.57 | 0.183 | 0.147 | 1.06 | 1.06 | 1.16 | 1.13 | 0.568 | 0.457 | 0.501 | 0.266 | 0.16 | 1.06
HOP-62 | 0.661 | 0.536 | 0.577 | 0.412 | 0.485 | 0.884 | 0.886 | 0.909 | 0.823 | 0.848 | 0.891 | 1.14 | 1.26 | 0.952 | 0.354 | 0.368 | 0.36 | 0.4 | 0.363 | 1.14
LC-2-ad | 0.807 | 0.809 | 0.766 | 0.756 | 0.69 | 0.987 | 0.996 | 1.09 | 1 | 0.616 | 0.858 | 0.883 | 0.921 | 0.828 | 0.899 | 0.858 | 0.939 | 0.861 | 0.662 | 0.994
LCLC-97TM1 | 0.185 | 0.306 | 0.299 | 0.261 | 0.139 | 0.691 | 0.787 | 0.749 | 0.721 | 0.778 | 0.942 | 0.899 | 0.956 | 0.983 | 0.201 | 0.217 | 0.202 | 0.192 | 0.165 | 0.96
LCLC-103H | 0.755 | 0.783 | 0.758 | 0.772 | 0.82 | 0.922 | 0.979 | 0.906 | 0.916 | 0.912 | 0.801 | 0.894 | 0.828 | 0.737 | 0.665 | 0.606 | 0.638 | 0.677 | 0.695 | 0.8
